Results taken from ChEMBL document CHEMBL1134136, “Novel piperidinyloxy oxazolidinone antimicrobial agents” (2001).
In brackets after ≈: the same amount, converted by molar mass.

Columns and labels:
Type in all cases: functional
Enterococcus faecium [1] = assay: Antibacterial activity against vancomycin - resistant Enterococcus faecium (OC 3312 VRE)
Enterococcus faecalis = assay: Antibacterial activity against Enterococcus faecalis (ATCC 29212)
Escherichia coli [2] = assay: Antibacterial activity against Escherichia coli (OC 2530) (HS)
Escherichia coli [3] = assay: Antibacterial activity against Escherichia coli (OC 2605)
Staphylococcus aureus [4] = assay: Antibacterial activity against methicillin susceptible Staphylococcus aureus (OC 4172) in broth (without serum)
Staphylococcus aureus [5] = assay: Antibacterial activity against methicillin susceptible Staphylococcus aureus (OC 4172) in presence of 50% mouse serum
Staphylococcus aureus [6] = assay: Antibacterial activity against methicillin - resistant Staphylococcus aureus (MRSA OC2878)
Staphylococcus aureus [7] = assay: Antibacterial activity towards methicillin - resistant Staphylococcus aureus (MRSA OC2878)
Enterococcus faecium [8] = assay: Minimum inhibitory concentration against vancomycin - resistant Enterococcus faecium (OC 3312 VRE)

| SMILES | MIC (Enterococcus faecium [1]) [µg/mL] | MIC (Enterococcus faecalis) [µg/mL] | MIC (Escherichia coli [2]) [µg/mL] | MIC (Escherichia coli [3]) [µg/mL] | MIC (Staphylococcus aureus [4]) [µg/mL] | MIC (Staphylococcus aureus [5]) [µg/mL] | MIC (Staphylococcus aureus [6]) [µg/mL] | MIC (Staphylococcus aureus [7]) [µg/mL] | MIC (Enterococcus faecium [8]) [µg/mL] |
| --- | --- | --- | --- | --- | --- | --- | --- | --- | --- |
| CC(=O)NC[C@H]1CN(c2ccc(OC3CCN(C(=O)CO)C3)c(F)c2)C(=O)O1 (stereo partly drawn) | 16 (≈ 40.5 µM) | 16 (≈ 40.5 µM) | 128 (≈ 324 µM) | 128 (≈ 324 µM) | 4 (≈ 10.1 µM) | 4 | 8 (≈ 20.2 µM) |  |  |
| CC(=O)NC[C@H]1CN(c2ccc(OC3CN(C(=O)COCc4ccccc4)C3)c(F)c2)C(=O)O1 | 16 (≈ 33.9 µM) | 16 (≈ 33.9 µM) | 64 (≈ 136 µM) | > 128 | 8 (≈ 17 µM) | 16 | 8 (≈ 17 µM) |  |  |
| CC(=O)NC[C@H]1CN(c2ccc(OC3CN(C(=O)CO)C3)c(F)c2)C(=O)O1 | 16 (≈ 42 µM) | 16 (≈ 42 µM) | > 128 | > 128 | 8 (≈ 21 µM) | 8 | 8 (≈ 21 µM) |  |  |
| CC(=O)NC[C@H]1CN(c2ccc(OC3CCN(C(=O)CO)CC3)cc2)C(=O)O1 | 32 (≈ 81.8 µM) | 32 (≈ 81.8 µM) | > 128 | > 128 | 16 (≈ 40.9 µM) | 32 | 16 (≈ 40.9 µM) |  |  |
| CC(=O)NC[C@H]1CN(c2ccc(OC3CCN(C(=O)COCc4ccccc4)CC3)c(F)c2)C(=O)O1 | 4 (≈ 8.01 µM) | 4 (≈ 8.01 µM) | > 32 | > 128 | 4 (≈ 8.01 µM) | 16 |  | 2 (≈ 4 µM) |  |
| CC(=O)NC[C@H]1CN(c2ccc(OC3CCCN(C(=O)COCc4ccccc4)C3)c(F)c2)C(=O)O1 (stereo partly drawn) | 64 (≈ 128 µM) | 64 (≈ 128 µM) | > 64 | > 128 | 32 (≈ 64.1 µM) | 32 | 32 (≈ 64.1 µM) |  |  |
| CC(=O)NC[C@H]1CN(c2ccc(OC3CCN(C(=O)COCc4ccccc4)CC3)cc2)C(=O)O1 |  | 16 (≈ 33.2 µM) | 128 (≈ 266 µM) | 128 (≈ 266 µM) | 16 (≈ 33.2 µM) | 64 | 8 (≈ 16.6 µM) |  | 16 (≈ 33.2 µM) |
| CC(=O)NC[C@H]1CN(c2ccc(OC3CCN(C(=O)CO)CC3)c(F)c2)C(=O)O1 | 8 (≈ 19.5 µM) | 8 (≈ 19.5 µM) | 128 (≈ 313 µM) | > 128 | 4 (≈ 9.77 µM) | 4 | 4 (≈ 9.77 µM) |  |  |
| CC(=O)NC[C@H]1CN(c2ccc(OC3CCN(C(=O)COCc4ccccc4)C3)c(F)c2)C(=O)O1 (stereo partly drawn) | 16 (≈ 33 µM) | 16 (≈ 33 µM) | > 128 | > 128 | 16 (≈ 33 µM) | 16 | 16 (≈ 33 µM) |  |  |
| CC(=O)NC[C@H]1CN(c2ccc(OC3CCCN(C(=O)CO)C3)c(F)c2)C(=O)O1 (stereo partly drawn) | 16 (≈ 39.1 µM) | 16 (≈ 39.1 µM) | 128 (≈ 313 µM) | > 128 | 8 (≈ 19.5 µM) | 8 | 8 (≈ 19.5 µM) |  |  |
| CC(=O)NC[C@H]1CN(c2ccc(N3CCOCC3)c(F)c2)C(=O)O1 [LINEZOLID] | 2 (≈ 5.93 µM) |  | 8 (≈ 23.7 µM) | 32 (≈ 94.9 µM) |  |  |  |  |  |
